Results: article PMC6009888, “Design, synthesis, and pharmacological evaluation of 2-amino-5-nitrothiazole derived semicarbazones as dual inhibitors of monoamine oxidase and cholinesterase: effect of the size of aryl binding site” (Journal of Enzyme Inhibition and Medicinal Chemistry, 2017)
Where “and” joins values, the source holds several entries; their conditions need not be identical. Equal values may be shown once.

Legend:
rat brain AChE = molecular target: T1, rat brain AChE (Rattus norvegicus, UniProt P37136); assay: biochemical; type: biochemical; conditions: for AChE: fold less active relative to compound 19: diaryl analogues; for IC50: rat brain AChE, ACTI substrate, mean ± SEM, triplicate, read-out: AChE In vitro IC50 (µM) ± SEM
T1 construct: the resulting clear supernatants obtained were used as enzyme sources; from tissue; host or cells: rat brain cortex homogenate, 10,000 g supernatant
T1 sequence (P37136 32-614): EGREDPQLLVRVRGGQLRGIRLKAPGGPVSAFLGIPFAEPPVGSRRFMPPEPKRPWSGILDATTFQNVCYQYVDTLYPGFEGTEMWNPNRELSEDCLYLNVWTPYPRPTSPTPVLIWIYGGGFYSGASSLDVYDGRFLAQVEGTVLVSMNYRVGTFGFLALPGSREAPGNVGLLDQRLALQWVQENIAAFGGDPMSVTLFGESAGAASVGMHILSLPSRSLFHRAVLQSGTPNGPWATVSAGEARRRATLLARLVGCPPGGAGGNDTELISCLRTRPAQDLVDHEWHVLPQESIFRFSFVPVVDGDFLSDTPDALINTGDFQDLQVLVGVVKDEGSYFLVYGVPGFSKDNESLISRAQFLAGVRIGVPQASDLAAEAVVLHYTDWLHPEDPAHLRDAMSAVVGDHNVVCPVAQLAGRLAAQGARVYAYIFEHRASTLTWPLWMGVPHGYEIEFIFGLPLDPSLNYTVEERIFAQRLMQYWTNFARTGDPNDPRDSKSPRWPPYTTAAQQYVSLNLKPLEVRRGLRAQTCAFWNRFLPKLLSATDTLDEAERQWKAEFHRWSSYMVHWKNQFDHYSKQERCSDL
Method: Rat brain was used as a source of AChE enzyme. Rats were separately decapitated, the brain cortices quickly removed, weighed and homogenised in cold 10 mM Tris-HCl buffer, pH 7.2, containing 160 mM sucrose. The homogenates were centrifuged at 10,000 g for 10 min at 4 °C, and the resulting clear supernatants obtained were used as enzyme sources that were divided into aliquots and stored at −20 °C.
(§1) About 30 µl of enzyme sample (AChE) was added to 60 µl of 20 mM sodium phosphate buffer (pH 7.4) and were incubated in the presence of 30 µl of 10 mM DTNB solution with different concentrations of the test compounds. The enzyme reaction was initiated by the addition of 30 µl of 0.8 mM ACTI. The mixtures were incubated for 15 min at 25 °C. […] Control experiments were carried out without inhibitor, and blanks were run without AChE enzyme. All the assays were performed in triplicate. IC50 values were determined using the GraphPad Prism 5.0 (San Diego, CA) and the results were expressed as mean ± SEM.
(§2) 0, 15, 30 and 60 min at 25 °C in sodium phosphate buffer (20 mM, pH 7.4) and DTNB solution (10 mM). […] The reaction was further incubated at 25 °C for a further 15 min and the residual enzyme activities were measured and the bar graphs were constructed. All measurements were carried out in triplicate and are expressed as mean ± SEM.

[1] = In vitro DPPH radical scavenging assay; conditions: test sample 100 µg/ml, 100 µM methanolic DPPH, 30 min, 517 nm
Method: Antioxidant activity of the synthesised compounds (10 mg/ml) was evaluated using the radical scavenging capability against the stable free radical, 2,2′-diphenyl-1-picryl hydrazyl (DPPH·). The DPPH· scavenging capability was determined using UV based spectrophotometric assay. About 200 µl of the test sample solution (100 µg/ml) was added to 4 ml of 100 µM methanolic DPPH. […] Ascorbic acid (100 µg/ml) was used as reference. The percentage inhibition of DPPH activity was estimated using the formula: Percent (%) inhibition of DPPH activity = Acontrol-Asample/Acontrol×100 where Acontrol is the absorbance of DPPH· in methanol without an antioxidant and Asample is the absorbance of DPPH· in the presence of an antioxidant.

mice = assay: Neurotoxicity screening (rotarod test); type: in vivo; conditions: 30 mg/kg i.p.
Method: The neurotoxicity screening was undertaken according to the method followed by the National Institute of Health, using their reported procedures[55]^,[56]. Male albino mice (CF-1 strain or Swiss, 18–25 g) were used as experimental animals. The animals were housed in metabolic cages, and allowed free access to food and water. The test compounds were suspended in 0.5% methylcellulose/water mixture or in polyethylene glycol (PEG 200).
Minimal motor impairment was measured in mice by the rotarod test. The mice were trained to stay on an accelerating rotarod that rotates at six revolutions per minute. The rod diameter was 3.2 cm. Trained animals were given i.p. injection of the selected inhibitors at a dose of 30 mg/kg. Neurotoxicity was indicated by the inability of the animal to maintain equilibrium on the rod for at least 1 min in each of the three trials.

physchem = conditions: octanol/water
MAO-B = molecular target: T2, MAO-B (Rattus norvegicus, UniProt P19643); assay: biochemical; conditions: for SI (selectivity index for MAO-B): ratio of experimental IC50(MAO-A)/IC50(MAO-B)
T2 construct: employing crude rat brain mitochondrial suspension; from tissue; host or cells: brain mitochondria of adult Wistar rats
T2 sequence (P19643 1-520): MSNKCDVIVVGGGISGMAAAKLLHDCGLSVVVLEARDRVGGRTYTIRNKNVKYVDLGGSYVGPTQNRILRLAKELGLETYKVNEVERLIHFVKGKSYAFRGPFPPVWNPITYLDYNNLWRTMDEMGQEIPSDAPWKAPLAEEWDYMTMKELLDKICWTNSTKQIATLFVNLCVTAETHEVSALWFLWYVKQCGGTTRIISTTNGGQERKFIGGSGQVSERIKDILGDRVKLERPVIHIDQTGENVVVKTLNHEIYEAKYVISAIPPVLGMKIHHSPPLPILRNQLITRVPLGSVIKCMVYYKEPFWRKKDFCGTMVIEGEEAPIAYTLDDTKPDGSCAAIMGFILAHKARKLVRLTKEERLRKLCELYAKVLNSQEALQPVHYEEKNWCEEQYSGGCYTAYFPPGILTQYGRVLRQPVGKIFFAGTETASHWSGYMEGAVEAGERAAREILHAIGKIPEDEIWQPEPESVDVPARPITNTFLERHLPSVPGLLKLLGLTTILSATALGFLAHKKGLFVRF
Method: (§3) Rat brain mitochondria were used as a source of MAO isoforms. All operations were carried out at 4 °C[50]. Male and female adult Wistar rats weighing 200–220 g were decapitated. All brains were rapidly removed and homogenised with a Potter–Elvehjem homogeniser in cold 0.32 M sucrose and 50 mM Tris-HCl, pH 8.2 (10:1, v/w). The homogenate was centrifuged twice at 1000 g for 5 min at 4 °C. The resulting supernatant was centrifuged at 20,000 g for 20 min. The mitochondrial pellet obtained was suspended in 100 mM sodium phosphate buffer, pH 7.4 (4:1, v/w), fractionated in plastic vials to 500 µl samples and stored at −80 °C. Before use, mitochondria were diluted with 100 mM sodium phosphate buffer to give a working solution of 0.80 mg of protein per millilitre.
(§4) The experiments were carried out under all the suitable laboratory conditions. […] An aliquot was made to contain mixture of 55 µl mitochondrial suspension (0.80 mg of protein/ml), 90 µl 50 mM Tris-HCl buffer, pH 8.2 and 30 µl solubilising solution (control or inhibitor solution at five different concentrations). The reaction was initiated by adding 25 µl of serotonin (4 mM, substrate for MAO-A) and 25 µl benzylamine (0.1 M, substrate for MAO-B) for the determination of MAO-A and MAO-B activity, respectively. The mixture was incubated at 37 °C for 30 min and the reaction was stopped by the addition of 50 µl of 1 N HCl. The absorbance associated with the production of 5-hydroxyindolacetic acid was measured at 280 nm for the estimation of MAO-A while for MAO-B estimation, the absorbance was measured at 250 nm due to the formation of benzaldehyde. All the assays were performed in triplicate. Control experiments were carried out without inhibitor and blanks were run without mitochondrial suspension.
(§5) Data are expressed as mean ± standard error mean (SEM) of experiments performed in triplicate.
as §2, with “37” for “25”, “Tris-HCl” for “sodium phosphate”, “(50” for “(20”, “8.2).” for “7.4) and DTNB solution (10 mM).”, “reactions were” for “reaction was”

MAO-A = molecular target: T3, MAO-A (Rattus norvegicus, UniProt P21396); assay: In vitro MAO-A inhibition assay (rat brain mitochondria, serotonin substrate); type: biochemical; conditions: rat brain mitochondria, serotonin substrate, mean ± SEM, triplicate; read-out: MAO-A In vitro IC50 (µM) ± SEM
T3 construct: employing crude rat brain mitochondrial suspension; from tissue; host or cells: brain mitochondria of adult Wistar rats
T3 sequence (P21396 1-526): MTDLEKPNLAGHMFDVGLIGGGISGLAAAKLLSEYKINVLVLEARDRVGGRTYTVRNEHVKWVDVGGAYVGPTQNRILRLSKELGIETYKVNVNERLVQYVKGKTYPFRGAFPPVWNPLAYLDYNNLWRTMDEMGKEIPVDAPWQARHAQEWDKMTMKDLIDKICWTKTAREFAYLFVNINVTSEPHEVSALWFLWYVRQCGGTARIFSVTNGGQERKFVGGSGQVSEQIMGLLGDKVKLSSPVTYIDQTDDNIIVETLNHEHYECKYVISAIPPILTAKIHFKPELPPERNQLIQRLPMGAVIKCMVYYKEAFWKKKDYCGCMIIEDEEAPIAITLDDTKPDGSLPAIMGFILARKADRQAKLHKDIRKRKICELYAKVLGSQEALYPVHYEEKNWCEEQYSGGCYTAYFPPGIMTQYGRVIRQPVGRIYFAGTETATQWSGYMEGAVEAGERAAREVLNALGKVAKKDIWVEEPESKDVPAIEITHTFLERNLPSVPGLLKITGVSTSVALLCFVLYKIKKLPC
Method: as §3, §4, §5
as §2, with “37” for “25”, “Tris-HCl” for “sodium phosphate”, “(50” for “(20”, “8.2).” for “7.4) and DTNB solution (10 mM).”, “reactions were” for “reaction was”

equine serum BuChE = molecular target: T4, equine serum BuChE (Equus caballus, UniProt P81908); assay: In vitro BuChE inhibition assay (Ellman's method, equine serum BuChE); type: biochemical; conditions: for IC50: equine serum BuChE, BuTI substrate, mean ± SEM, read-out: BuChE In vitro IC50 (µM) ± SEM
T4 construct: equine serum BuChE was used as enzyme; purchased Sigma-Aldrich; host or cells: equine serum
T4 sequence (P81908 whole entry): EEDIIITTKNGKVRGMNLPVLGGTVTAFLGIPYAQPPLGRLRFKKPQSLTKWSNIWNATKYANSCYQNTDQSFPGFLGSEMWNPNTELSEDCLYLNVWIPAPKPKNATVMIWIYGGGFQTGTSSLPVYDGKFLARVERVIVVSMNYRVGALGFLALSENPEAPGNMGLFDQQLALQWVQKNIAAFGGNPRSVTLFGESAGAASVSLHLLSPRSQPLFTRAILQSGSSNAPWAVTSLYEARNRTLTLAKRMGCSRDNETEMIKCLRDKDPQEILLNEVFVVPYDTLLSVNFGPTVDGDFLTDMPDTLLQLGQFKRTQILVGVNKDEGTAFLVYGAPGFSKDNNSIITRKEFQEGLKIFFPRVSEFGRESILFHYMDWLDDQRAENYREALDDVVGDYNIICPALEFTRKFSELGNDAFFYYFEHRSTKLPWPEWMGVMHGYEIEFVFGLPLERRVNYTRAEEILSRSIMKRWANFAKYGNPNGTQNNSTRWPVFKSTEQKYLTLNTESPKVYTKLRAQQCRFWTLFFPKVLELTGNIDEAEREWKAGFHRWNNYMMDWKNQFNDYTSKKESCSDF
Method: as §1
The BuChE activity was assayed as per the procedure followed for AChE activity except that equine serum BuChE was used as enzyme and butyrylthiocholine iodide (BuTI) was used as substrate.
as §2

Row | Structure (SMILES) | AChE: fold less active relative to compound 19 (rat brain AChE) | IC50 (rat brain AChE) | AChE: fold more active relative to compound 7 (rat brain AChE; ratio of IC50 values) | % inhibition of DPPH activity [1] | Neurotoxicity (animals that exhibit toxicity / animals tested) (mice; 0.5 h) | Neurotoxicity (animals that exhibit toxicity / animals tested) (mice; 1 h) | Neurotoxicity (animals that exhibit toxicity / animals tested) (mice; 2 h) | Neurotoxicity (animals that exhibit toxicity / animals tested) (mice; 4 h) | logP (physchem) | IC50 (MAO-B) | MAO-B: fold reduction in the activity (hydroxyl vs dichloro diaryl analogue 19) (MAO-B; diaryl analogues) | MAO-B: fold less active relative to compound 7 (MAO-B; ratio of IC50 values) | SI (selectivity index for MAO-B) (MAO-B) | IC50 (MAO-A) | Mode of BuChE inhibition (equine serum BuChE; Lineweaver–Burk plots, BuTI) | IC50 (equine serum BuChE) | Reversibility of BuChE inhibition (equine serum BuChE; time-dependent inhibition, pre-incubation 0, 15, 30, 60 min) | AChE: fold less active than compound 14 (rat brain AChE; isomeric dichloro derivatives) | MAO-B: fold less active than compound 13 (MAO-B; isomeric dichloro derivatives) | BuChE: fold less active relative to compound 17 (equine serum BuChE; diaryl analogues)
1 | O=C(NN=C(c1ccccc1)c1ccc(O)cc1)Nc1ncc([N+](=O)[O-])s1 [Compound 18, 1-((4-Hydroxyphenyl)(phenyl)methylene)-4-(5-nitrothiazol-2-yl)semicarbazide] | ~1.83 fold | 2.66 ± 0.084 µM | ~4.97 fold | 10.77% | 0/4 | 0/4 | 0/4 | 0/4 | 2.9 | 158 ± 3.71 µM | ~107 fold | ~10.7 fold | 217.26 | > 100 µM and 34300 µM |  |  |  |  |  | 
2 | O=C(NN=C1C(=O)Nc2ccccc21)Nc1ncc([N+](=O)[O-])s1 [Compound 20, 4-(5-Nitrothiazol-2-yl)-1-(2-oxoindolin-3-ylidene)semicarbazide] |  | 54.8 ± 0.92 µM |  | 47.16% | 0/4 | 0/4 | 0/4 | 0/4 | 1.1 | 4.51 ± 0.086 µM |  |  | 499.22 | 2250 ± 12.8 µM |  |  |  |  |  | 
3 | O=C(NN=Cc1ccc(Cl)cc1Cl)Nc1ncc([N+](=O)[O-])s1 [Compound 13, 1-(2,4-Dichlorobenzylidene)-4-(5-nitrothiazol-2-yl)semicarbazide] |  | 141 ± 3.11 µM |  | 39.39% | 0/4 | 0/4 | 0/4 | 0/4 | 2.5 | 3.49 ± 0.098 µM |  |  | 3001.15 | 10470 ± 13.9 µM |  |  |  |  |  | 
4 | O=C(NN=C(c1ccccc1)c1ccc(Cl)cc1)Nc1ncc([N+](=O)[O-])s1 [Compound 17, 1-((4-Chlorophenyl)(phenyl)methylene)-4-(5-nitrothiazol-2-yl)semicarbazide] |  | 11.5 ± 0.35 µM |  |  |  |  |  |  | 3.6 | 28.52 ± 0.079 µM |  |  | 170.83 | 4872 ± 5.81 µM | mixed-type | 0.024 ± 0.002 µM | reversible |  |  | 
5 | O=C(NN=Cc1cccc(Cl)c1Cl)Nc1ncc([N+](=O)[O-])s1 [Compound 12, 1-(2,3-Dichlorobenzylidene)-4-(5-nitrothiazol-2-yl)semicarbazide] |  | 101 ± 1.58 µM |  | 42.56% | 0/4 | 0/4 | 0/4 | 0/4 | 2.6 | 8.51 ± 0.132 µM |  |  | 395.79 | 3369 ± 6.43 µM |  |  |  | ~9.4 fold | ~2.4 fold | 
6 | O=C(NN=C(c1ccccc1)c1ccccc1)Nc1ncc([N+](=O)[O-])s1 [Compound 16, 1-(Diphenylmethylene)-4-(5-nitrothiazol-2-yl)semicarbazide] | ~3.35 fold | 4.86 ± 0.81 µM |  |  | 0/4 | 0/4 | 0/4 | 0/4 | 3.4 | 28.3 ± 0.45 µM |  |  | 3.15 | < 100 µM and 89.3 µM |  | 1.76 ± 0.035 µM |  |  |  | ~73 fold
